Earlier results on one molecule are cited in patent US11864558B2, “Herbicidal compositions containing N-phosphonomethyl glycine and an auxin herbicide” (Monsanto Technology LLC, priority 2004, dated 2024).

The conditions of the data set: acid form; 25° C.

As to `O=C(O)CNCP(=O)(O)O` [glyphosate, N-phosphonomethylglycine], the solubility in water was 1.16 % by weight.
